Values quoted from earlier work, collected in patent publication US20170065526A1, “SOLID DOSAGE FORM OF RIVAROXABAN AND METHODS FOR MAKING THE SAME” (priority 2015, published 2017).
Converted amounts (≈) assume the structure as drawn.

Conditions: relatively poor solubility, background statement

- solubility: ~7 µg/mL (≈ 16.1 µM)
SMILES: O=C(NC[C@H]1CN(c2ccc(N3CCOCC3=O)cc2)C(=O)O1)c1ccc(Cl)s1 [rivaroxaban, (S)-5-chloro-N-{[2-oxo-3-[4-(3-oxomorpholin-4-yl)phenyl]oxazolidin-5-yl]methyl}thiophene-2-carboxamide]
